# Molecular target: T1, Lysosomal acid glucosylceramidase (Homo sapiens, UniProt P04062)
# T1 sequence (P04062 whole entry): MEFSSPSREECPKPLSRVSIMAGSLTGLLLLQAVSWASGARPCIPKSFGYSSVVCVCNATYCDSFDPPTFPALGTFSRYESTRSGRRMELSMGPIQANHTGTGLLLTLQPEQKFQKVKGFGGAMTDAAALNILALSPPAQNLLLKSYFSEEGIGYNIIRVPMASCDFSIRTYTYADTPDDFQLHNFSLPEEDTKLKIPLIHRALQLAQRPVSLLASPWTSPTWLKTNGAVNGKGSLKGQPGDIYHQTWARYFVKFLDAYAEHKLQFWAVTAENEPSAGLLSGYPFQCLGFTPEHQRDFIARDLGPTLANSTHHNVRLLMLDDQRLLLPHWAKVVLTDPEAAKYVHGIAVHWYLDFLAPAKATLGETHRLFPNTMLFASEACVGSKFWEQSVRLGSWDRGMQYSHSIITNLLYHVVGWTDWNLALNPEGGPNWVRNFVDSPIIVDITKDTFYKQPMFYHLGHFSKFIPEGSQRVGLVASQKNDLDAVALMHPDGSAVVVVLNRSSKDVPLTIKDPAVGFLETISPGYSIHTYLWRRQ
# Assay: GC Enzyme Assay
# Settings: pH 5.9; 21 °C
IC50 [µM],Ki [µM],Structure (SMILES)
34.4,23.4,CN(c1ccc(C(=O)Nc2nccs2)cc1)S(=O)(=O)c1ccccc1
1.29,0.556,"O=C(Nc1nccs1)c1ccc(NS(=O)(=O)c2ccc(Cl)cc2)cc1 [4-[(4-chlorobenzene)sulfonamido]-N-(1,3-thiazol-2-yl)benzamide]"
